Data on one molecule can be found in patent publication US8217141B2, “Crystalline and amorphous forms of peptide” (Neopro Labs, LLC, priority 2007, dated 2012).

The nature of series [1]: Approximate solubility, solvent addition method. Type of series: physicochemical. Conditions: ambient temperature. Here is the method: A weighed sample of SEQ ID NO:1 (a polypeptide of amino acids F-L-P—S) was treated with aliquots of the test solvent at ambient temperature. Complete dissolution of the test material was determined by visual inspection. Solubility was estimated based on the total solvent used to provide complete dissolution. The actual solubility may be greater than the value calculated because of the use of solvent aliquots that were too large or due to a slow rate of dissolution. […] If complete dissolution was achieved as a result of only one aliquot addition, the solubility is expressed as “greater than”.

A short description of series [2]: Dynamic vapor sorption/desorption (DVS). Type of series: physicochemical. Conditions: for weight gain, adsorption: 5%-95% RH; for weight loss, desorption: 95%-5% RH. Here is the method:
Moisture sorption/desorption data were collected on a VTI SGA-100 Vapor Sorption Analyzer. Sorption and desorption data were collected over a range of 5% to 95% relative humidity (RH) at 10% RH intervals under a nitrogen purge. Samples were not dried prior to analysis. Equilibrium criteria used for analysis were less than 0.0100% weight change in 5 minutes, with a maximum equilibration time of 3 hours if the weight criterion was not met. Data were not corrected for the initial moisture content of the samples. Sodium chloride and polyvinypyrrolidine were used as calibration standards.

Each structure is given as a SMILES string. Where a SMILES comes first, the peptide text is derived from it. Some results are limits rather than exact numbers.

Regarding `CC(C)CC(NC(=O)C(N)Cc1ccccc1)C(=O)N1CCCC1C(=O)NC(CO)C(=O)O` (centres unmarked) [SEQ ID NO: 1] (H-FLPS-OH; configuration not given here), the solubility – broadly, the concentration that dissolves in the medium under given conditions – in series [1] (1-Butanol) is at least 43 mg/mL; in series [1] (2-Butanone) it was at least 20 mg/mL; in series [1] (2-Propanol), at least 20 mg/mL; in series [1] (Acetone) it was at least 40 mg/mL; in series [1] (Acetonitrile (ACN)), at least 19 mg/mL; in series [1] (Chloroform), at most 1.9 mg/mL. Further, the solubility in series [1] (Dichloromethane (DCM)) is at least 20 mg/mL; in series [1] (Ethanol (EtOH)) it was at least 52 mg/mL; in series [1] (Ethyl acetate (EtOAc)) it was at least 20 mg/mL; in series [1] (Heptane) it was at most 2 mg/mL; in series [1] (Isopropyl ether), at most 2.7 mg/mL; in series [1] (Methanol (MeOH)) it was at least 50 mg/mL. For the same molecule, the solubility in series [1] (Pentane) is at most 2 mg/mL; in series [1] (Tetrahydrofuran (THF)), at least 44 mg/mL; in series [1] (Toluene), at most 3.6 mg/mL; in series [1] (Water, visual inspection) it was at least 60 mg/mL. The “weight gain, adsorption” value in series [2] is given as 5%-95% RH; 25.0 w % (gain),; in series [2] (listed as SEQ ID NO:1) it was 25.0 w %. Also, the “weight loss, desorption” value in series [2] was 95%-5% RH; 28.2 w % (loss); in series [2] (listed as SEQ ID NO:1), 28.2 w %. In addition, the “final weight loss after the desorption step” value in series [2] (at ~5% RH, relative to original weight) is 4.4%. This molecule came in with an initial weight loss in series [2] (on equilibration at ~5% RH, as received material) of 1.3%. The “weight gain on the sorption step” value in series [2] (up to ~95% RH, relative to original weight) is listed as “approximately 23.7%”.
